Reference: patent US20250019373A1, “ARYL OR HETEROARYL DERIVATIVE, AND PHARMACEUTICAL COMPOSITION COMPRISING SAME AS ACTIVE INGREDIENT FOR PREVENTION OR TREATMENT OF KINASE-RELATED DISEASES” (VORONOI INC., priority 2021, published 2025)

System: HT-29 cells
Assay: Cell necrosis inhibitory activity under necroptosis-inducing conditions (TNF-α, Z-VAD-FMK, LCL161) in HT-29 cells, Cell Titer-Glo
Assay type: cell-based
Settings: Homo sapiens, 100 ng/mL TNF-α + 25 μM Z-VAD-FMK + Smac mimetic LCL161, 24 hours, cell viability
Method: To evaluate the cell necrosis inhibitory activity of the compound according to the present invention, an experiment was conducted as follows.
To evaluate the efficacy of inhibiting cell necrosis under TNF-α-mediated cell death-inducing conditions, a HT-29 cell line (Korean Cell Line Bank Accession No. #30038) was cultured in RPMI-1640 (HyClone #SH3027.01) medium containing 10% fetal bovine serum (FBS) and 1% penicillin/streptomycin to analyze cell viability. More specifically, for testing, the cell line was seeded in a 96-well flat bottom plate (Corning #3903) at a concentration of 10,000 cells/well and incubated at 37° C. under a 5% CO2 condition for 24 hours. Each well was treated with 100 ng/mL TNF-α, 25 μM pan-caspase inhibitor (Z-VAD-FMK, Selleckchem #S8102), and 10 µM Smac mimetic LCL161 (Selleckchem #S7009) and allowed to react for 10 minutes. The compounds of Examples were treated at 11 concentrations (the highest concentration being 0.1 μM or 1 μM) with a 3-fold concentration gradient, and as a control, dimethyl sulfoxide (DMSO) was treated at a concentration of 0.05% (v/v), which is the same as those when the compounds were treated. The treated cells were incubated for 24 hours. To confirm the degree of cell viability, 100 μL of Cell Titer-Glo (Promega #G7573) was added to the medium of the cultured cells and cultured for additional 10 minutes, and then luminescence was measured using a microplate reader. Based on the […] of control cells that were not treated with the compound, the degree of cell necrosis inhibitory activity was calculated according to the treatment concentration of each compound. Here, the concentration at which the cell necrosis inhibitory activity was 50% was determined as an EC50 (nM) value and calculated using Prism (ver. 8.4.3 #GraphPad) software.

Going from `COc1ncc(-c2ccc3nc(NC(C)=O)oc3c2)cc1NC(=O)N1OCC[C@H]1c1ccccc1` [Example 13, (S)-N-(5-(2-acetamidobenzo[d]oxazol-6-yl)-2-methoxypyridin-3-yl)-3-phenylisoxazolidine-2-carboxamide] to `COc1ccc(-c2ccc3nc(NC(C)=O)oc3c2)cc1NC(=O)N1OCC[C@H]1c1ccccc1` [Example 16, (S)-N-(5-(2-acetamidobenzo[d]oxazol-6-yl)-2-methoxyphenyl)-3-phenylisoxazolidine-2-carboxamide], the EC50 rises from 2.6 nM to 4.9 nM (1.9-fold). The first is the more potent here.

First: COc1ccc(-c2ccn3nc(N)nc3c2)c(F)c1NC(=O)N1OCC[C@H]1c1ccccc1 [Example 103, (S)-N-(3-(2-amino-[1,2,4]triazolo[1,5-a]pyridin-7-yl)-2-fluoro-6-methoxyphenyl)-3-phenylisoxazolidine-2-carboxamide]
Second: Nc1nc2cc(-c3ccc(F)c(NC(=O)N4OCC[C@H]4c4ccccc4)c3)ccn2n1 [Example 123, (S)-N-(5-(2-amino-[1,2,4]triazolo[1,5-a]pyridin-7-yl)-2-fluorophenyl)-3-phenylisoxazolidine-2-carboxamide]
The EC50 of the first is 52-fold higher: 15.6 nM for the first, 0.3 nM for the second.

First: Cc1ccc(-c2ccc3ncnn3c2)cc1NC(=O)N1OCC[C@H]1c1ccccc1 [Example 101, (S)-N-(5-([1,2,4]triazolo[1,5-a]pyridin-6-yl)-2-methylphenyl)-3-phenylisoxazolidine-2-carboxamide]
Second: Cc1ccc(-c2ccn3ncnc3c2)cc1NC(=O)N1OCC[C@H]1c1ccccc1 [Example 102, (S)-N-(5-([1,2,4]triazolo[1,5-a]pyridin-7-yl)-2-methylphenyl)-3-phenylisoxazolidine-2-carboxamide]
The EC50 of the first is 6.9-fold higher: 6.2 nM for the first, 0.9 nM for the second. The second is the more potent here.

Compared with `Cc1ccc(-c2cc3c(cn2)ncn3C)cc1NC(=O)N1OCC[C@H]1c1ccccc1` [Example 133, (S)-N-(2-methyl-5-(1-methyl-1H-imidazo[4,5-c]pyridin-6-yl)phenyl)-3-phenylisoxazolidine-2-carboxamide], `Cc1ccc(-c2ccc3ncsc3n2)cc1NC(=O)N1OCC[C@H]1c1ccccc1` [Example 131, (S)-N-(2-methyl-5-(thiazolo[5,4-b]pyridin-5-yl)phenyl)-3-phenylisoxazolidine-2-carboxamide] is 1.6-fold lower in EC50: 6.5 nM for the first, 4 nM for the second.

Compared with `Cc1ccc(-c2ccn3nc(N)nc3c2)cc1NC(=O)N1OCC[C@H]1c1ccc(C#N)cc1` [Example 92, (S)-N-(5-(2-amino-[1,2,4]triazolo[1,5-a]pyridin-7-yl)-2-methylphenyl)-3-(4-cyanophenyl)isoxazolidine-2-carboxamide], `Cc1ccc(-c2ccc3nc(N)nn3c2)cc1NC(=O)N1OCC[C@H]1c1ccc(C#N)cc1` [Example 91, (S)-N-(5-(2-amino-[1,2,4]triazolo[1,5-a]pyridin-6-yl)-2-methylphenyl)-3-(4-cyanophenyl)isoxazolidine-2-carboxamide] is 1.5-fold higher in EC50: 0.6 nM for the first, 0.9 nM for the second. The first is the more potent here.

`Cc1ccc(-c2ccc3nc(N)nn3c2)cc1NC(=O)N1OCC[C@H]1c1cccc(F)c1` [Example 60, (S)-N-(5-(2-amino-[1,2,4]triazolo[1,5-a]pyridin-6-yl)-2-methylphenyl)-3-(3-fluorophenyl)isoxazolidine-2-carboxamide] and `Cc1ccc(-c2ccc3nc(N)nn3c2)cc1NC(=O)N1OCC[C@H]1c1ccccc1` [Example 32, (S)-N-(5-(2-amino-[1,2,4]triazolo[1,5-a]pyridin-6-yl)-2-methylphenyl)-3-phenylisoxazolidine-2-carboxamide] are within 1.5-fold of each other in EC50: 0.4 nM for the first, 0.6 nM for the second.

Going from `CN(C)C1CCC(NC(=O)c2n[nH]c3cc(-c4cccc(NC(=O)N5OCC[C@H]5c5ccccc5)c4)ccc23)CC1` (stereo partly drawn) [Example 20, (S)-N-(3-(3-((4-(dimethylamino)cyclohexyl)carbamoyl)-1H-indazol-6-yl)phenyl)-3-phenylisoxazolidine-2-carboxamide] to `CNC(=O)c1n[nH]c2cc(-c3cccc(NC(=O)N4OCC[C@H]4c4ccccc4)c3)ccc12` [Example 17, (S)-N-(3-(3-(methylcarbamoyl)-1H-indazol-6-yl)phenyl)-3-phenylisoxazolidine-2-carboxamide], the EC50 falls from 0.3 nM to 0.1 nM (3-fold). The second is the more potent here.

Going from `Cc1ccc(-c2ccc3nccn3c2)cc1NC(=O)N1OCC[C@H]1c1ccccc1` [Example 113, (S)-N-(5-(imidazo[1,2-a]pyridin-6-yl)-2-methylphenyl)-3-phenylisoxazolidine-2-carboxamide] to `Cc1ccc(-c2ccc3ncc(C#N)n3n2)cc1NC(=O)N1OCC[C@H]1c1ccccc1` [Example 118, (S)-N-(5-(3-cyanoimidazo[1,2-b]pyridazin-6-yl)-2-methylphenyl)-3-phenylisoxazolidine-2-carboxamide], the EC50 rises from 2.4 nM to 4.3 nM (1.8-fold). The first is the more potent here.

Going from `CC(=O)Nc1nc2cc(-c3cnc(C)c(NC(=O)N4OCC[C@H]4c4ccccc4)c3)ccn2n1` [Example 49, (S)-N-(5-(2-acetamido-[1,2,4]triazolo[1,5-a]pyridin-7-yl)-2-methylpyridin-3-yl)-3-phenylisoxazolidine-2-carboxamide] to `CC(=O)Nc1nc2ccc(-c3cnc(C)c(NC(=O)N4OCC[C@H]4c4ccccc4)c3)cn2n1` [Example 35, (S)-N-(5-(2-acetamido-[1,2,4]triazolo[1,5-a]pyridin-6-yl)-2-methylpyridin-3-yl)-3-phenylisoxazolidine-2-carboxamide], the EC50 rises from 1.3 nM to 3.2 nM (2.5-fold). The first is the more potent here.

First: Cc1ncc(-c2ccc3nc(N)nn3c2)cc1NC(=O)N1OCC[C@H]1c1cc(F)cc(Cl)c1 [Example 52, (S)-N-(5-(2-amino-[1,2,4]triazolo[1,5-a]pyridin-6-yl)-2-methylpyridin-3-yl)-3-(3-chloro-5-fluorophenyl)isoxazolidine-2-carboxamide]
Second: Cc1ncc(-c2ccc3nc(N)nn3c2)cc1NC(=O)N1OCC[C@H]1c1ccc(F)c(Cl)c1 [Example 42, (S)-N-(5-(2-amino-[1,2,4]triazolo[1,5-a]pyridin-6-yl)-2-methylpyridin-3-yl)-3-(3-chloro-4-fluorophenyl)isoxazolidine-2-carboxamide]
The EC50 of the first is 4.7-fold higher: 2.8 nM for the first, 0.6 nM for the second. The second is the more potent here.

`Cc1ncc(-c2ccc3nc(N)nn3c2)cc1NC(=O)N1OCC[C@H]1c1ccc(C#N)cc1` [Example 68, (S)-N-(5-(2-amino-[1,2,4]triazolo[1,5-a]pyridin-6-yl)-2-methylpyridin-3-yl)-3-(4-cyanophenyl)isoxazolidine-2-carboxamide] and `Cc1ncc(-c2ccn3nc(N)nc3c2)cc1NC(=O)N1OCC[C@H]1c1ccc(C#N)cc1` [Example 70, (S)-N-(5-(2-amino-[1,2,4]triazolo[1,5-a]pyridin-7-yl)-2-methylpyridin-3-yl)-3-(4-cyanophenyl)isoxazolidine-2-carboxamide] are within 1.5-fold of each other in EC50: 3.9 nM for the first, 5.2 nM for the second.

Going from `COc1ncc(-c2ccc3c(N)ncnn23)cc1NC(=O)N1OCC[C@H]1c1ccccc1` [Example 99, (S)-N-(5-(4-aminopyrrolo[2,1-f][1,2,4]triazin-7-yl)-2-methoxypyridin-3-yl)-3-phenylisoxazolidine-2-carboxamide] to `COc1ncc(-c2ccn3nc(N)nc3c2)cc1NC(=O)N1OCC[C@H]1c1cc(F)cc(F)c1` [Example 54, (S)-N-(5-(2-amino-[1,2,4]triazolo[1,5-a]pyridin-7-yl)-2-methoxypyridin-3-yl)-3-(3,5-difluorophenyl)isoxazolidine-2-carboxamide], the EC50 falls from 8.2 nM to 0.4 nM (20-fold). The second is the more potent here.

Compared with `Cc1ccc(-c2ccn3nc(N)cc3c2)cc1NC(=O)N1Oc2ccccc2[C@H]1c1ccccc1` [Example 139, (R)-N-(5-(2-aminopyrazolo[1,5-a]pyridin-5-yl)-2-methylphenyl)-3-phenylbenzo[d]isoxazole-2(3H)-carboxamide], `Cc1ccc(-c2ccn3nc(N)cc3c2)cc1NC(=O)N1CCOC[C@H]1c1ccccc1` [Example 136, (R)-N-(5-(2-aminopyrazolo[1,5-a]pyridin-5-yl)-2-methylphenyl)-3-phenylmorpholine-4-carboxamide] is 2.5-fold higher in EC50: 2.2 nM for the first, 5.4 nM for the second. The first is the more potent here.

`O=C(Nc1cn2nc(-c3cccc(NC(=O)N4OCC[C@H]4c4ccccc4)c3)ccc2n1)C1CC1` [Example 2, (S)-N-(3-(2-(cyclopropanecarboxamido)imidazo[1,2-b]pyridazin-6-yl)phenyl)-3-phenylisoxazolidine-2-carboxamide] and `Cc1ccc(-c2ccc3nc(NC(=O)C4CC4)sc3n2)cc1NC(=O)N1OCC[C@H]1c1ccc(C#N)cc1` [Example 94, (S)-3-(4-cyanophenyl)-N-(5-(2-(cyclopropanecarboxamido)thiazolo[5,4-b]pyridin-5-yl)-2-methylphenyl)isoxazolidine-2-carboxamide] are within 1.5-fold of each other in EC50: 0.2 nM for the first, 0.3 nM for the second.

Compared with `Cc1ccc(-c2ccc3nc(N)nn3c2)cc1NC(=O)N1OCC[C@H]1c1cc(F)cc(F)c1` [Example 59, (S)-N-(5-(2-amino-[1,2,4]triazolo[1,5-a]pyridin-6-yl)-2-methylphenyl)-3-(3,5-difluorophenyl)isoxazolidine-2-carboxamide], `Cc1ncc(-c2ccc3nc(N)nn3c2)cc1NC(=O)N1OCC[C@H]1c1cccc(C#N)c1` [Example 46, (S)-N-(5-(2-amino-[1,2,4]triazolo[1,5-a]pyridin-6-yl)-2-methylpyridin-3-yl)-3-(3-cyanophenyl)isoxazolidine-2-carboxamide] is 28-fold higher in EC50: 0.7 nM for the first, 19.4 nM for the second.
